From patent US20120041006A1, “Compositions for Raising Uric Acid Levels and Methods of Using the Same” (priority 1998, published 2012)

How the values were obtained:
[1] = Chickens given allopurinol to lower uric acid; glycosylation damage; format: in vivo
Description: The following example was conducted to establish the role of uric acid in protecting against the sequelia associated with diabetic damage. It is established that this sequelia occurs in diabetic patients due to increases in sugar levels that result from either the insufficient production of insulin or the insufficient breakdown of sugar by the insulin, depending of the type of diabetes. Sugar, in excess conditions, can become an oxidizer, which leads to oxidative damage in a patient. Glycosylated hemoglobin (HBA1C) is used to measure the amount of oxidative damage that results from excess sugar in a patient; increased (HBA1C) is the definition used for diabetes. […] Chickens are known to have excessively high sugar levels, and should be essentially in a diabetic state. […] To confirm the causal relationship between high levels of uric acid and prevention of glycosylation damage, chickens were given allopurinol. This compound specifically […].

[2] = Oral uric acid precursor in a person with Alzheimer's; format: in vivo, human; conditions: one Alzheimer's patient; 500-1,000 mg orally per day; upon raising uric acid levels

Structure (SMILES)	signs of diabetic complications ([1]; after uric acid reduced to below normal levels)	uric acid levels ([1]; enough administered to effect significant conversion of uric acid)	levels of the chicken equivalent of A1C (glycosylated hemoglobin) ([1]; once uric acid reduced to below normal levels)	Alzheimer symptoms (not recognizing bathroom, incontinence, general cognitive decline) [2]
Oc1ncnc2[nH]ncc12 [allopurinol]	exhibited signs of diabetic complications	lowering of uric acid levels	increased dramatically	
O=c1[nH]cnc2nc[nH]c12 [hypoxanthine]				reduced
OC[C@H]1O[C@@H](n2cnc3c(O)ncnc32)[C@H](O)[C@@H]1O [inosine]				reduced
